Five molecules from ChEMBL document CHEMBL1765027, “5'-Modified pyrimidine nucleosides as inhibitors of ribonuclease A” (Bioorg Med Chem, 2011) can be followed below.

Each structure is given as a SMILES string. pKi: −log10 of the molar value. Activity calls are given as the source filed them. The rule behind the calls is not given here.

For assay [1], the target named is T1, Ribonuclease pancreatic (Bos taurus, UniProt P61823).
T1 sequence (P61823 whole entry): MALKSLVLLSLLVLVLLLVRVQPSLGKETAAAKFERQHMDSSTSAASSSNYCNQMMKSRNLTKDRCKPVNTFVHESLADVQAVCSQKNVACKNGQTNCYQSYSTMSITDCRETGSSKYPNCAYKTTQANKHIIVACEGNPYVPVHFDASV
The assay is described as follows: Inhibition of bovine pancreatic RNase A at pH 5.9 by spectrophotometric method.

Assay [2] concerns the target T2, Ribonuclease pancreatic (Bos taurus) (UniProt P61823).
T2 sequence (whole entry): T1 sequence (P61823 whole entry)
The assay is described as follows: Inhibition of bovine pancreatic RNase A-mediated degradation of yeast tRNA assessed as residual tRNA band at 0.18 mM preincubated for 3 hrs measured after 30 mins of addition of tRNA using ethidium bromide staining by agarose gel based assay.

The target in assay [3] is T1, Ribonuclease pancreatic. In words: Inhibition of bovine pancreatic RNase A using 2',3'-cCMP as a substrate by Dixon plot analysis.
For assay [4], the target named is T2, Ribonuclease pancreatic (Bos taurus). In words: Inhibition of bovine pancreatic RNase A-mediated degradation of yeast tRNA assessed as residual tRNA band at 0.27 mM preincubated for 3 hrs measured after 30 mins of addition of tRNA using ethidium bromide staining by agarose gel based assay.
Assay [5] has the same target. In words: Inhibition of bovine pancreatic RNase A ribonucleolytic activity assessed as reduction of yeast tRNA degradation at 0.27 mM preincubated for 2 hrs by precipitation assay.
For assay [6] the target is unchanged. In words: Inhibition of bovine pancreatic RNase A-mediated degradation of yeast tRNA assessed as residual tRNA band at 0.09 mM preincubated for 3 hrs measured after 30 mins of addition of tRNA using ethidium bromide staining by agarose gel based assay.
The target in assay [7] is T1, Ribonuclease pancreatic. The assay is described as follows: Inhibition of bovine pancreatic RNase A using 2',3'-cCMP as a substrate by Lineweaver-Burk analysis.

Regarding `Nc1ncnc2c1ncn2[C@@H]1O[C@H](CO)[C@@H](OP(=O)(O)OC[C@H]2O[C@@H](n3ccc(=O)[nH]c3=O)C[C@@H]2OP(=O)(O)OP(=O)(O)O)[C@H]1O`, the pKi on Ribonuclease pancreatic [1] was 7.57.
`Cc1cn([C@H]2C[C@@H](O)[C@@H](CN3CCC(C(=O)O)CC3)O2)c(=O)[nH]c1=O`: the result in assay [2], in assay [4] and in assay [6] was Active. The pKi on Ribonuclease pancreatic [3] is 3.74; at Ribonuclease pancreatic [7], 3.64. Besides, the inhibition in assay [5] was 18%.
Regarding `O=C(O)C1CCN(C[C@H]2O[C@@H](n3ccc(=O)[nH]c3=O)[C@H](O)[C@@H]2O)CC1`, the result in assay [2], in assay [4] and in assay [6] was Active. Further, the pKi on Ribonuclease pancreatic [3] was 4.21; at Ribonuclease pancreatic [7], 4.12. For the same molecule, the inhibition in assay [5] stood at 37%.
For the molecule `Cc1cn([C@H]2C[C@H](O)[C@@H](CN3CCC(C(=O)O)CC3)O2)c(=O)[nH]c1=O`, the result in assay [2], in assay [4] and in assay [6] was Active. The values for the pKi at Ribonuclease pancreatic [3] and on Ribonuclease pancreatic [7] were 3.92 and 3.79, respectively. In assay [5], the inhibition amounted to 23%.
For the molecule `Cc1cn([C@H]2C=C[C@@H](CN3CCC(C(=O)O)CC3)O2)c(=O)[nH]c1=O`, the result in assay [2], in assay [4] and in assay [6] was Active. For the same molecule, the inhibition in assay [5] is 14%. On Ribonuclease pancreatic [7], this molecule had a pKi of 3.60.
